Measurements: patent US20160000837A1, “COMPOSITIONS AND METHODS TO ALTER GUT MICROBIAL FERMENTATION USING SULFATE-REDUCING BACTERIA” (WASHINGTON UNIVERSITY, priority 2013, published 2016)

How the values were obtained:
D. piger [1] = assay: In vitro cross feeding between B. thetaiotaomicron and D. piger (growth in conditioned medium, OD600); type: cell-based, D. piger GOR1; settings: for D. piger growth in medium conditioned by wild-type B. thetaiotaomicron grown on the named carbon substrate: 0.5% carbon substrate in minimal medium, filter-sterilized, lactate 30 mM added, no added sulfate
Experimental: A B. thetaiotaomicron strain Δbt0238 that lacks detectable sulfatase activity, and the isogenic wild-type strain were grown in separate cultures containing minimal medium with either a sulfated or non-sulfated carbon substrate (chondroitin sulfate and fructose, respectively).
Exponential phase cultures of B. thetaiotaomicron Δbt0238 and the isogenic wild-type parental strain (Benjdia et al., 2011; kindly provided by Eric Martens, University of Michigan and Olivier Berteau, INRA), grown in Mega Medium 2.0, were inoculated under anaerobic conditions (atmosphere of 5% H2, 20% CO2 and 75% N2) into Balch tubes containing minimal medium supplemented with either 0.5% (w/v) chondroitin sulfate purified from shark cartilage (Sigma) or 0.5% fructose (Sigma) (n=6 tubes/carbon substrate/strain). […] Cultures representing the same strain and carbon substrate were combined and bacteria were pelleted by centrifugation at 3,200×g at 4° C. for ˜20 min. The supernatant was removed and sterilized by passage through a 0.22 μm filter (Fisher). […] The pH of the conditioned medium was adjusted to ˜7.0 using potassium phosphate buffer (pH 7.2). One half of each conditioned medium preparation was used to fill anaerobic Balch tubes (in triplicate) while sulfate (14 mM Na2SO4 and 4.1 mM MgSO4) was added to the remaining conditioned medium prior to filling the tubes (in triplicate).

D. piger [2] = assay: COPRO-Seq relative abundance of D. piger in fecal microbiota of gnotobiotic mice fed sulfur-supplemented HF/HS diets; type: in vivo
Text: Six groups, each composed of two co-housed mice colonized with the 9-member model human gut microbiota were fed one of 13 diets, all based on the HF/HS diet (0.12% w/w SO4; see Table S2 of Rey et al. PNAS 110: 13582-13587 for diet composition). Each group of mice were started on the HF/HS diet and then given a sequence of four diets with differing sulfur content, each for a 7-day period. The sequence of presentation of the four diets was randomized so that that each diet was eventually fed to two different groups of co-housed animals.
DNA isolated from feces (and cecal contents) was used to prepare libraries for shotgun Illumina sequencing (McNulty et al., 2011). Briefly, 1 μg of DNA from each sample was fragmented by sonication to an average size of ˜500 bp and subjected to enzymatic blunting and adenine tailing. Customized Illumina adapters containing maximally distant 4 bp or 8 bp barcodes were ligated to the A-tailed DNA. Barcoded libraries were then pooled, subjected to gel electrophoresis for size selection (˜200 bp) and the size-selected DNA amplified by PCR using primers and cycling conditions recommended by Illumina. Amplicons were purified (QIAquick PCR Purification Kit, Qiagen) and sequenced using an Illumina GA-IIx or HiSeq2000 instrument, with libraries loaded onto the flow cell at a concentration of 2.0-2.5 pM. […]

## O=C(CO)[C@@H](O)[C@H](O)[C@H](O)CO [fructose]
D. piger [1]
  D. piger growth in medium conditioned by wild-type B. thetaiotaomicron grown on the named carbon substrate: lack of growth

## CC(O)C(=O)O (stereo not shown) [lactate]
D. piger [1]; in the absence of sulfate, data not shown
  growth of D. piger with lactate as sole carbon and electron source: does not support growth

## O=S(=O)(O)O [sulfate]
D. piger [2]; 600-fold change in dietary sulfate (0.001% to 0.6% w/w) in HF/HS-based diets, 7 days each
  relative abundance of D. piger in the 9-member model human microbiota: did not affect
D. piger [1]; 14 mM Na2SO4 and 4.1 mM MgSO4 added
  D. piger growth in fructose-conditioned medium after addition of exogenous sulfate: allowed growth

## chondroitin sulfate
D. piger [2]; HF/HS diet supplemented with 3% chondroitin sulfate, 7 days, 9-member community, p<0.05
  D. piger levels in fecal microbiota relative to the HF/HS diet: doubled
D. piger [1]
  D. piger growth in medium conditioned by wild-type B. thetaiotaomicron grown on the named carbon substrate: Growth of D. piger was only observed
D. piger [1]; chondroitin sulfate-containing minimal medium, lactate added
  ability of D. piger to metabolize the substrate (growth in medium harvested from B. thetaiotaomicron Δbt0238 cultures): not able to metabolize
